From the pKa sets of Baltruschat and Czodrowski (2020)

| pKa | SMILES |
| --- | --- |
| 8.55 | Brc1ccc(C2CN3C=CSC3=[NH+]2)cc1 (stereo not drawn) |
| 8.7 | O=C1c2ccccc2-[n+]2ccc3c([nH]c4ccccc43)c21 |
| 4.25 | CNc1nc2ccccc2n(C)c1=O |
| 7.7 | C[C@@H](NC(=O)c1cc(C(=O)N[C@@H](Cc2ccccc2)[C@H](O)C[NH2+]C2CC2)cc(N(C)S(C)(=O)=O)c1)c1ccc(F)cc1 |
| 3.51 | O=C([O-])COc1ccc(Cl)cc1C1CCCCC1 |
| 4.27 | CNC(=O)c1ccccc1Nc1nc(Nc2ccc(N3CCOCC3)cc2OC)ncc1Cl |
| 3.37 | CC(C)N(CCCCOCC(=O)NS(C)(=O)=O)c1cnc(-c2ccccc2)c(-c2ccccc2)n1 |
| 3.4 | CN1c2ccc(C#N)cc2N=C(c2ccc(C(=O)[O-])c(F)c2)c2cc3c(cc21)C(C)(C)CCC3(C)C |
| 9.1 | C[NH+](C)CC1CCc2cc(NC(=O)c3ccc(-c4ccc(F)cc4)cc3)ccc2C1 (stereo not drawn) |
| 4.6 | OCCn1cc(-c2cnc3nnn(Cc4ccc5ncccc5c4)c3n2)cn1 |
| 2.92 | CC(=O)Nc1cccc2c1c(Sc1ccc(Cl)cc1)c(C)n2CC(=O)[O-] |
| 7.87 | O=c1[nH]c(-c2ccc(C(F)(F)F)cc2)nc2c1CCOC2 |
| 8.4 | CN(n1c(=O)[nH]c2cc(Cl)ccc2c1=O)S(C)(=O)=O |
| 8.2 | CC#CCn1c(N2CC[NH2+]CC2)c(C#N)c2ncn(CC(=O)c3cccc(OC)c3)c(=O)c21 |
| 7.5 | O=c1cc(CSc2cccc(F)c2F)nc2cc(-c3ccco3)[nH]n12 |
| 4.26 | CC/C(=C(\c1ccccc1)c1ccc(/C=C/C(=O)[O-])cc1)c1ccccc1 |
| 8.4 | CS(=O)(=O)Nn1c(=O)[nH]c2cc(C(F)(F)F)c(N3CCCOCC3)cc2c1=O |
| 4.39 | O=C([O-])c1ccccc1Nc1ccc(CCc2ccc(Cl)c(Cl)c2)cc1 |
| 3.35 | Cc1ccc(C)n1-c1ccc(Cl)cc1C(=O)[O-] |
| 9.43 | Cc1cc(N2CCCC2)cc(/C=C/c2cccc(C(F)(F)F)c2)[nH+]1 |
| 5.5 | C/C(=C\c1cc(C)ccn1)[C@@H]1C[C@@H]2O[C@]2(C)CCC[C@H](C)[C@H](O)[C@@H](C)C(=O)C(C)(C)[C@@H](O)CC(=O)O1 |

| pKa | SMILES |
| --- | --- |
| 4.2 | Cc1ccc(Nc2c(F)cccc2Cl)c(CC(=O)[O-])c1 |
| 5 | C/C(=C\c1ccccn1)[C@@H]1C[C@@H]2O[C@]2(C)CCC[C@H](C)[C@H](O)[C@@H](C)C(=O)C(C)(C)[C@@H](O)CC(=O)O1 |
| 5.8 | CCN(Cc1ccccc1)c1ccccc1 |
| 5.2 | Cc1nc(-n2ccc([O-])cc2=O)sc1C(=O)NCc1ccccc1 |
| 3.87 | Clc1ccc(OCc2nn[n-]n2)c(C2CCCCC2)c1 |
| 4.5 | N#Cc1ncc2cc(COc3cccc(CCC(=O)[O-])c3)n(CCC3CCCCC3)c2n1 |
| 3.48 | O=C([O-])COc1ccc(Cl)cc1C1CCCCCC1 |
| 7.8 | C[NH+](CCC(=O)N1CCN(c2ccc(F)c(F)c2)CC1)CCC1c2ccccc2-c2ccccc21 |
| 5.5 | C/C(=C\c1cccc(C)n1)[C@@H]1C[C@@H]2O[C@]2(C)CCC[C@H](C)[C@H](O)[C@@H](C)C(=O)C(C)(C)[C@@H](O)CC(=O)O1 |
| 3.7 | CCOCC(=O)N1CCC(CNc2nc3c(s2)CCOc2ccc(F)cc2-3)CC1 |
| 9.3 | CC(C)(C)Cn1c(Cc2ccc(NS(N)(=O)=O)cc2)cc2cnc(C#N)nc21 |
| 4.94 | Fc1ccc2c(/C=C/c3nn[n-]n3)c[nH]c2c1 |
| 5 | Cc1nc(N2CCN(CC3CC3)C2=O)sc1C(=O)NCc1cccnc1 |
| 3.69 | CCCCC(=O)N1CCC(CNc2nc3c(s2)CCOc2ccc(F)cc2-3)CC1 |
| 10 | Cc1onc(-c2ccccc2)c1-c1ccc(S(N)(=O)=O)cc1 |
| 9.01 | CN1C(=O)N(C[C@H](C(=O)NO)[C@@H](CC2CCCC2)C(=O)N2CCCCC2)C(=O)C1(C)C |
| 3.3 | CC(=O)N1CCN(c2ccc(OCc3cc4cnc(C#N)nc4n3CCC3CCCCC3)cc2)CC1 |
| 8.2 | O=S(=O)(c1ccccc1)N(CC(F)(F)F)c1ccc(C(O)(C(F)(F)F)C(F)(F)F)cc1 |
| 3.8 | Cc1ccc2c(=O)c3cccc(CC(=O)[O-])c3oc2c1C |
| 8.3 | Cc1ccc(-c2ccc3c(c2)C=C(C(=O)Nc2ccc(C[NH+](C)C4CCOCC4)cc2)CCC3)cc1 |

| SMILES | pKa |
| --- | --- |
| CC(C)(C)[NH2+]C[C@H](O)c1cc(Cl)c(N)c(Cl)c1 | 9.7 |
| C/C(=C\c1ccc(C)cn1)[C@@H]1C[C@@H]2O[C@]2(C)CCC[C@H](C)[C@H](O)[C@@H](C)C(=O)C(C)(C)[C@@H](O)CC(=O)O1 | 4.5 |
